“And” between values parts separate entries of the source, which are not always exact repeats. Identical values can stand only once.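 Each compound was tested at five concentrations against cells in 96-well plates for 48 hours. GI50 is the concentration that inhibits growth by half. At the TGI there is no net growth.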

Experimental findings from PubChem BioAssay (NCI) are described below.

Among the test systems are EKVX NSCLC; KM12 colon; SF-539 CNS; OVCAR-4 ovarian; SR leukemia; SK-MEL-5 melanoma; SW-620 colon; RXF 393 renal; SN12C renal; PC-3 prostate.
Assay in all cases: NCI tumour cell line growth inhibition, 48 h

For the compound `O=C(Nc1nc2ccccc2n1Cc1ccccc1)NC12CC3CC(CC(C3)C1)C2`, the TGI is above 100 µM in the assay with EKVX NSCLC; above 100 µM in the assay with KM12 colon; above 100 µM in the assay with SF-539 CNS; 82.8 µM in the assay on OVCAR-4 ovarian; above 100 µM in the assay with SR leukemia; above 100 µM in the assay on SK-MEL-5 melanoma. In addition, the TGI with SW-620 colon is above 100 µM; in the assay on RXF 393 renal, 93.8 µM; in the assay with SN12C renal, above 100 µM.
As to `Cc1nc2ccc(Nc3nc(NCCN4CCOCC4)nc(Nc4ccc(F)cc4)n3)cc2n1Cc1ccccc1`, the GI50 with KM12 colon was 3.82 µM; with SF-539 CNS it was 1.63 µM; in the assay with SR leukemia it was 1.46 µM; in the assay with SK-MEL-5 melanoma, 1.63 µM; with SW-620 colon it was 3.24 µM; in the assay with PC-3 prostate, 3.26 µM. Further, the GI50 with RXF 393 renal was 1.59 µM; in the assay with SN12C renal, 5.57 µM. The TGI in the assay on KM12 colon amounted to 19.9 µM; in the assay with SF-539 CNS it was 3.23 µM; in the assay with SR leukemia, 5.23 µM; with SK-MEL-5 melanoma, 2.98 µM; with SW-620 colon, 10.7 µM; in the assay on PC-3 prostate it was 16.2 µM. The TGI in the assay with RXF 393 renal is 4.07 µM; with SN12C renal it was above 100 µM.
With `N=C(N=C(N)N)N1CCN(c2ccncc2)CC1`, the GI50 with KM12 colon, with SF-539 CNS, in the assay on OVCAR-4 ovarian, with SR leukemia, in the assay with SK-MEL-5 melanoma and in the assay on SW-620 colon was above 1000 µM throughout. For the same compound, the GI50 in the assay with PC-3 prostate and in the assay on SN12C renal was above 1000 µM throughout. The TGI in the assay with KM12 colon, with SF-539 CNS, in the assay on OVCAR-4 ovarian, with SR leukemia, with SK-MEL-5 melanoma and in the assay with SW-620 colon was above 1000 µM in each case. Also, the TGI with PC-3 prostate and in the assay with SN12C renal was above 1000 µM throughout.
On to `COc1cc2noc(-c3ccccc3)c2cc1OC`, for which the TGI in the assay with KM12 colon, in the assay with SF-539 CNS, in the assay on OVCAR-4 ovarian, in the assay on SR leukemia, in the assay with SK-MEL-5 melanoma and in the assay with SW-620 colon was above 100 µM in each case. Moreover, the TGI with RXF 393 renal is 73.8 µM; in the assay with SN12C renal, above 100 µM.
Regarding `CCC(=O)C(C)C1=Nc2nnc(CCCCCCCc3nnc4n3C(=O)C(C(C)C(=O)CC)=N4)n2C1=O` (stereo not given), the TGI with EKVX NSCLC, with KM12 colon, in the assay with SF-539 CNS, in the assay on SR leukemia, in the assay with SK-MEL-5 melanoma and in the assay with SW-620 colon was above 100 µM throughout. Further, the TGI with RXF 393 renal and in the assay with SN12C renal was above 100 µM each time.
With `COC1CC2C=C(C)/C=C/C=C/C(=O)NC(c3ccccc3)C/C=C/CCC(O)CC(=O)C2=C1O` (stereo not given), the GI50 in the assay with KM12 colon was 0.332 µM; in the assay with SF-539 CNS it was 0.28 µM; in the assay with OVCAR-4 ovarian, 0.294 µM; in the assay with SR leukemia it was 0.0956 µM; in the assay with SW-620 colon, 0.31 µM; in the assay with PC-3 prostate, 0.289 µM. The figures for the GI50 with RXF 393 renal and in the assay with SN12C renal were 0.314 µM and 0.227 µM, respectively. Further, the TGI with KM12 colon was found to be 1.26 µM; in the assay on SF-539 CNS, 0.912 µM; in the assay with OVCAR-4 ovarian, 1.08 µM; with SR leukemia it was 0.794 µM; in the assay with SW-620 colon, 1.36 µM; in the assay with PC-3 prostate it was 1.16 µM. In addition, the TGI in the assay on RXF 393 renal worked out at 1.09 µM; with SN12C renal it was 1.11 µM.
For `CC(=O)OCCOCNC(=S)N/N=C(\C)c1cnc2ccccc2n1`, the TGI with EKVX NSCLC, in the assay with KM12 colon, in the assay with SF-539 CNS, with OVCAR-4 ovarian, in the assay on SR leukemia and with SK-MEL-5 melanoma was above 100 µM throughout. The TGI in the assay with SW-620 colon, in the assay on RXF 393 renal and with SN12C renal was above 100 µM in each case.
For `CCCCCC(=O)c1ccc2[nH]c3c(C)cc([N+](=O)[O-])c(C)c3c2c1`, the TGI in the assay on EKVX NSCLC, in the assay on KM12 colon, with SF-539 CNS, in the assay with OVCAR-4 ovarian, in the assay on SR leukemia and in the assay with SK-MEL-5 melanoma was above 100 µM throughout. Moreover, the TGI in the assay with SW-620 colon and in the assay with SN12C renal was above 100 µM throughout.
With `O=S(=O)(NCC1CCC(CNc2ccc(Cl)cc2)CC1)c1ccc(-c2ccccc2)cc1` (stereo not given), the GI50 in the assay on EKVX NSCLC was 25.7 µM; with KM12 colon, above 50 µM; in the assay on SF-539 CNS it was above 50 µM; in the assay on OVCAR-4 ovarian, above 50 µM; in the assay with SR leukemia, above 50 µM; in the assay on SK-MEL-5 melanoma it was 15.9 µM. In addition, the GI50 in the assay with SW-620 colon is above 50 µM; with PC-3 prostate it was 40.9 µM; with SN12C renal it was above 50 µM. Also, the TGI in the assay with EKVX NSCLC, in the assay with KM12 colon, in the assay with SF-539 CNS, with OVCAR-4 ovarian, in the assay with SR leukemia and with SK-MEL-5 melanoma was above 50 µM throughout. For the same compound, the TGI in the assay on SW-620 colon, with PC-3 prostate and in the assay on SN12C renal was above 50 µM in each case.
Consider `CN1NC2(CCCCC2)ON=C1c1ccccc1`, for which the TGI in the assay with EKVX NSCLC, with KM12 colon, with SF-539 CNS, in the assay with OVCAR-4 ovarian, in the assay on SR leukemia and with SK-MEL-5 melanoma was above 100 µM in each case. Further, the TGI with SW-620 colon, in the assay with RXF 393 renal and in the assay with SN12C renal was above 100 µM in each case.
As to `CCOC(=O)C(Cc1c[nH]c2ccc(N(CCCl)CCCl)cc12)(NC(C)=O)C(=O)OCC`, the GI50 is 52.2 µM and 38.7 µM in the assay with EKVX NSCLC; 22.1 µM and 14.9 µM with KM12 colon; 3.18 µM and 6.88 µM in the assay with SF-539 CNS; 53 µM and 47.8 µM in the assay with OVCAR-4 ovarian; 1.86 µM in the assay on SR leukemia; 7.34 µM and 24.5 µM in the assay on SK-MEL-5 melanoma. Further, the GI50 is 8.78 µM and 13.2 µM in the assay with SW-620 colon; 3.84 µM and 18.5 µM in the assay with PC-3 prostate; 8.82 µM and 8.93 µM with SN12C renal. The TGI in the assay with EKVX NSCLC is 403 µM; in the assay on KM12 colon, 83.5 µM and 36.3 µM; in the assay on SF-539 CNS, 12.6 µM and 30.3 µM; in the assay on OVCAR-4 ovarian it was 682 µM; in the assay on SR leukemia it was 7.14 µM; in the assay on SK-MEL-5 melanoma, 25.5 µM and 137 µM. In addition, the TGI in the assay with SW-620 colon is 93.6 µM and 46.8 µM; with PC-3 prostate, 48.1 µM and 332 µM; in the assay with SN12C renal, 564 µM.
